Results: PubChem BioAssay (NCI)
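Protocol summary: plate cells (96-well), add compound at 5 concentrations, incubate 48 h, interpolate endpoints linearly. Here, GI50 denotes the concentration required for 50% inhibition of growth. The concentration for full growth arrest is given as TGI.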

What was measured:
Test in all cases: growth of human tumour cells (NCI), 48 h
NCI-H522 lung = tested on: NCI-H522 lung
NCI/ADR-RES ovarian = tested on: NCI/ADR-RES ovarian
OVCAR-3 ovarian = tested on: OVCAR-3 ovarian
786-0 renal = tested on: 786-0 renal
SK-MEL-5 melanoma = tested on: SK-MEL-5 melanoma
SN12C renal = tested on: SN12C renal
A549 NSCLC = tested on: A549 NSCLC
OVCAR-4 ovarian = tested on: OVCAR-4 ovarian
U251 CNS = tested on: U251 CNS
MDA-MB-231 breast = tested on: MDA-MB-231 breast
NCI-H460 lung = tested on: NCI-H460 lung
MALME-3M melanoma = tested on: MALME-3M melanoma
HOP-62 NSCLC = tested on: HOP-62 NSCLC
SW-620 colon = tested on: SW-620 colon
HCC-2998 colon = tested on: HCC-2998 colon
LOX IMVI melanoma = tested on: LOX IMVI melanoma
IGROV1 ovarian = tested on: IGROV1 ovarian
A498 renal = tested on: A498 renal
BT-549 breast = tested on: BT-549 breast
COLO 205 colon = tested on: COLO 205 colon
EKVX NSCLC = tested on: EKVX NSCLC
SF-268 CNS = tested on: SF-268 CNS
HCT-116 colon = tested on: HCT-116 colon
SK-OV-3 ovarian = tested on: SK-OV-3 ovarian
OVCAR-5 ovarian = tested on: OVCAR-5 ovarian
SF-539 CNS = tested on: SF-539 CNS
HCT-15 colon = tested on: HCT-15 colon
MOLT-4 leukemia = tested on: MOLT-4 leukemia
DU-145 prostate = tested on: DU-145 prostate
M14 melanoma = tested on: M14 melanoma
NCI-H226 lung = tested on: NCI-H226 lung
RPMI-8226 leukemia = tested on: RPMI-8226 leukemia
UO-31 renal = tested on: UO-31 renal
HL-60(TB) leukemia = tested on: HL-60(TB) leukemia
SF-295 CNS = tested on: SF-295 CNS
TK-10 renal = tested on: TK-10 renal
MDA-MB-435 = tested on: MDA-MB-435
MCF7 breast = tested on: MCF7 breast
T-47D breast = tested on: T-47D breast
HS 578T breast = tested on: HS 578T breast
UACC-257 melanoma = tested on: UACC-257 melanoma
HT29 colon = tested on: HT29 colon
SNB-75 CNS = tested on: SNB-75 CNS
CCRF-CEM leukemia = tested on: CCRF-CEM leukemia
PC-3 prostate = tested on: PC-3 prostate
HOP-92 NSCLC = tested on: HOP-92 NSCLC
KM12 colon = tested on: KM12 colon
OVCAR-8 ovarian = tested on: OVCAR-8 ovarian
MDA-MB-468 breast = tested on: MDA-MB-468 breast
SK-MEL-2 melanoma = tested on: SK-MEL-2 melanoma
ACHN renal = tested on: ACHN renal
K-562 leukemia = tested on: K-562 leukemia
SNB-19 CNS = tested on: SNB-19 CNS
UACC-62 melanoma = tested on: UACC-62 melanoma
SK-MEL-28 melanoma = tested on: SK-MEL-28 melanoma
RXF 393 renal = tested on: RXF 393 renal
CAKI-1 renal = tested on: CAKI-1 renal
NCI-H23 lung = tested on: NCI-H23 lung

For `C/C(=N/O)c1ccc(NC(=O)CSc2nnc(-c3ccc4nc(-c5ccc(Cl)cc5)[nH]c4c3)o2)cc1`, the GI50 (NCI-H522 lung) was 3.48 µM, the TGI (NCI-H522 lung) was 17.2 µM and the GI50 (NCI/ADR-RES ovarian) was greater than 100 µM. The TGI (NCI/ADR-RES ovarian) was greater than 100 µM, the GI50 (OVCAR-3 ovarian) was 18.8 µM and the TGI (OVCAR-3 ovarian) was 38 µM. For the same compound, the GI50 (786-0 renal) was 3.36 µM, the TGI (786-0 renal) was 11.8 µM and the GI50 (SK-MEL-5 melanoma) was 5.47 µM. The TGI (SK-MEL-5 melanoma) was 18.2 µM, the GI50 (SN12C renal) was 4.04 µM and the TGI (SN12C renal) was 15.5 µM. For the same compound, the GI50 (A549 NSCLC) was 8.19 µM, the TGI (A549 NSCLC) was 28.1 µM and the GI50 (OVCAR-4 ovarian) was 18.7 µM. The TGI (OVCAR-4 ovarian) was 42 µM, the GI50 (U251 CNS) was 3.03 µM and the TGI (U251 CNS) was 8.87 µM. For the same compound, the GI50 (MDA-MB-231 breast) was 2.22 µM, the TGI (MDA-MB-231 breast) was 5.35 µM and the GI50 (NCI-H460 lung) was 12.7 µM. It also gave a TGI (NCI-H460 lung) of 32.4 µM, a GI50 (MALME-3M melanoma) of 1.93 µM and a TGI (MALME-3M melanoma) of 4.86 µM. It also gave a GI50 (HOP-62 NSCLC) of 2.57 µM, a TGI (HOP-62 NSCLC) of 8.69 µM and a GI50 (SW-620 colon) of 22 µM. It also gave a TGI (SW-620 colon) of 59.5 µM, a GI50 (HCC-2998 colon) of 43.2 µM and a TGI (HCC-2998 colon) greater than 100 µM. For the same compound, the GI50 (LOX IMVI melanoma) was 1.94 µM, the TGI (LOX IMVI melanoma) was 4.05 µM and the GI50 (IGROV1 ovarian) was 16.2 µM. The TGI (IGROV1 ovarian) was 30.5 µM, the GI50 (A498 renal) was 21.3 µM and the TGI (A498 renal) was 37.1 µM. For the same compound, the GI50 (BT-549 breast) was 4.36 µM, the TGI (BT-549 breast) was 20.5 µM and the GI50 (COLO 205 colon) was 22.3 µM. It also gave a TGI (COLO 205 colon) of 66.1 µM, a GI50 (EKVX NSCLC) of 18 µM and a TGI (EKVX NSCLC) of 45.1 µM. It also gave a GI50 (SF-268 CNS) of 12.7 µM, a TGI (SF-268 CNS) of 30.5 µM and a GI50 (HCT-116 colon) of 4.78 µM. The TGI (HCT-116 colon) was 37.7 µM, the GI50 (SK-OV-3 ovarian) was 20.4 µM and the TGI (SK-OV-3 ovarian) was 39.4 µM. It also gave a GI50 (OVCAR-5 ovarian) of 17.8 µM, a TGI (OVCAR-5 ovarian) of 36.1 µM and a GI50 (SF-539 CNS) of 10.2 µM. The TGI (SF-539 CNS) was 22.1 µM, the GI50 (HCT-15 colon) was 56.9 µM and the TGI (HCT-15 colon) was greater than 100 µM. It also gave a GI50 (MOLT-4 leukemia) of 3.66 µM, a TGI (MOLT-4 leukemia) greater than 100 µM and a GI50 (DU-145 prostate) of 17.7 µM. The TGI (DU-145 prostate) was 33.3 µM, the GI50 (M14 melanoma) was 3.38 µM and the TGI (M14 melanoma) was 15 µM. It also gave a GI50 (NCI-H226 lung) of 13.5 µM, a TGI (NCI-H226 lung) of 32.8 µM and a GI50 (RPMI-8226 leukemia) of 13.6 µM. The TGI (RPMI-8226 leukemia) was 71.5 µM, the GI50 (UO-31 renal) was 24.8 µM and the TGI (UO-31 renal) was greater than 100 µM. For the same compound, the GI50 (HL-60(TB) leukemia) was 13.8 µM, the TGI (HL-60(TB) leukemia) was greater than 100 µM and the GI50 (SF-295 CNS) was 12.9 µM. The TGI (SF-295 CNS) was 28.9 µM, the GI50 (TK-10 renal) was 28.4 µM and the TGI (TK-10 renal) was 56.4 µM. For the same compound, the GI50 (MDA-MB-435) was 3.79 µM, the TGI (MDA-MB-435) was 15 µM and the GI50 (MCF7 breast) was 6.65 µM. The TGI (MCF7 breast) was 26 µM, the GI50 (T-47D breast) was 17.3 µM and the TGI (T-47D breast) was 41.9 µM. For the same compound, the GI50 (HS 578T breast) was 3.63 µM, the TGI (HS 578T breast) was 28.6 µM and the GI50 (UACC-257 melanoma) was 12.9 µM. It also gave a TGI (UACC-257 melanoma) of 29.8 µM, a GI50 (HT29 colon) of 9.34 µM and a TGI (HT29 colon) of 29.8 µM. For the same compound, the GI50 (SNB-75 CNS) was 5.87 µM, the TGI (SNB-75 CNS) was 22.8 µM and the GI50 (CCRF-CEM leukemia) was 3.05 µM. It also gave a TGI (CCRF-CEM leukemia) greater than 100 µM, a GI50 (PC-3 prostate) of 3.6 µM and a TGI (PC-3 prostate) of 16.3 µM. The GI50 (HOP-92 NSCLC) was 3.12 µM, the TGI (HOP-92 NSCLC) was 9.48 µM and the GI50 (KM12 colon) was 16.7 µM. It also gave a TGI (KM12 colon) of 43 µM, a GI50 (OVCAR-8 ovarian) of 3.29 µM and a TGI (OVCAR-8 ovarian) of 15.1 µM. The GI50 (MDA-MB-468 breast) was 18.5 µM, the TGI (MDA-MB-468 breast) was 33.7 µM and the GI50 (SK-MEL-2 melanoma) was 13.2 µM. It also gave a TGI (SK-MEL-2 melanoma) of 27.8 µM, a GI50 (ACHN renal) of 15.8 µM and a TGI (ACHN renal) of 35 µM. For the same compound, the GI50 (K-562 leukemia) was 3.39 µM, the TGI (K-562 leukemia) was greater than 100 µM and the GI50 (SNB-19 CNS) was 12 µM. The TGI (SNB-19 CNS) was 25.7 µM, the GI50 (UACC-62 melanoma) was 3.09 µM and the TGI (UACC-62 melanoma) was 11.1 µM. The GI50 (SK-MEL-28 melanoma) was 2.23 µM, the TGI (SK-MEL-28 melanoma) was 5.14 µM and the GI50 (RXF 393 renal) was 2.38 µM. For the same compound, the TGI (RXF 393 renal) was 8.16 µM, the GI50 (CAKI-1 renal) was 12.3 µM and the TGI (CAKI-1 renal) was 28.5 µM. The GI50 (NCI-H23 lung) was 3.43 µM and the TGI (NCI-H23 lung) was 16.7 µM.
